Among the data in patent US9908868B2, “Isoindolinone compounds as GPR119 modulators for the treatment of diabetes, obesity, dyslipidemia and related disorders” (SANOFI, priority 2014, dated 2018) are EC50 values, retold here.

This assay addresses T1, human GPR119 (Homo sapiens, UniProt Q8TDV5).
T1 construct: expressed in transfected cells
T1 sequence (Q8TDV5 1-335): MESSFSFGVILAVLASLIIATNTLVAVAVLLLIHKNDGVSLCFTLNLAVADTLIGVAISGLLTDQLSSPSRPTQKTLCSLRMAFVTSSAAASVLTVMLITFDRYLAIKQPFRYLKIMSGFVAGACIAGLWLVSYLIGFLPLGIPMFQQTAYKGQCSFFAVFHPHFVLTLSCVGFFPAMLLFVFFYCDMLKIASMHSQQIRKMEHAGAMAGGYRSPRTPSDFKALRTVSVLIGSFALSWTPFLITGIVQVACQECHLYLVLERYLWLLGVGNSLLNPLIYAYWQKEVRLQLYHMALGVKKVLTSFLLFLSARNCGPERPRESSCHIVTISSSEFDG
Nature of the assay: Functional cellular assay measuring GPR119-mediated cAMP release (HTRF) in HEK-293 cells stably expressing recombinant human GPR119. In kind it is cell-based. The following applies: cAMP response, cell line expressing human GPR119, 30 minutes at room temperature. In a few lines: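 HEK-293 cells stably expressing recombinant human GPR119, suspended at 400000 cells/mL in HBSS/20 mM HEPES/0.1% BSA/2 mM IBMX, exposed to compound for 30 minutes at room temperature. cAMP detected by HTRF (665/620 nm ratio) after 1 h with reagents in lysis buffer. EC50 taken as concentration giving 50% of maximal activation.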

For `Cc1csc(-c2ccc(O[C@@H]3CCN(c4ccc5c(c4)C(=O)N(CC(=O)N(C)C)C5)C3=O)cc2)n1` [Example 2-31, N,N-dimethyl-2-[6-[(3R)-3-[4-(4-methylthiazol-2-yl)phenoxy]-2-oxo-pyrrolidin-1-yl]-1-oxo-isoindolin-2-yl]acetamide], the EC50 was 0.343 µM. The result for `Cc1nc(-c2ccc(O[C@@H]3CCN(c4ccc5c(c4)C(=O)N(CC(=O)N(C)C)C5)C3=O)cc2)no1` [Example 2-32, N,N-dimethyl-2-[6-[(3R)-3-[4-(5-methyl-1,2,4-oxadiazol-3-yl)phenoxy]-2-oxo-pyrrolidin-1-yl]-1-oxo-isoindolin-2-yl]acetamide] reads 0.268 µM; that for `CN(C)C(=O)CN1Cc2ccc(N3CC[C@@H](Oc4ccc(NC5=NC(=O)CS5)cc4)C3=O)cc2C1=O` [Example 2-33, N,N-dimethyl-2-[1-oxo-6-[(3R)-2-oxo-3-[4-[(4-oxothiazol-2-yl)amino]phenoxy]pyrrolidin-1-yl]isoindolin-2-yl]acetamide], 2.21 µM; that for `CC(C)c1noc(-c2ccc(O[C@@H]3CCN(c4ccc5c(c4)C(=O)N(CC(=O)N(C)C)C5)C3=O)cc2)n1` [Example 2-34, 2-[6-[(3R)-3-[4-(3-isopropyl-1,2,4-oxadiazol-5-yl)phenoxy]-2-oxo-pyrrolidin-1-yl]-1-oxo-isoindolin-2-yl]-N,N-dimethyl-acetamide], 0.084 µM. The result for `CN(C)C(=O)CN1Cc2ccc(N3CC[C@@H](Oc4ccc(C(=O)N5CCCC5)cc4)C3=O)cc2C1=O` [Example 2-35, N,N-dimethyl-2-[1-oxo-6-[(3R)-2-oxo-3-[4-(pyrrolidine-1-carbonyl)phenoxy]pyrrolidin-1-yl]isoindolin-2-yl]acetamide] reads 8.66 µM; that for `CN(C)C(=O)CN1Cc2ccc(N3CC[C@@H](Oc4ccc(-n5cnnc5)cc4)C3=O)cc2C1=O` [Example 2-36, N,N-dimethyl-2-[1-oxo-6-[(3R)-2-oxo-3-[4-(1,2,4-triazol-4-yl)phenoxy]pyrrolidin-1-yl]isoindolin-2-yl]acetamide], 32.8 µM.

With `CN(C)C(=O)CN1Cc2ccc(N3CC[C@@H](Oc4ccc(-c5cnco5)cc4)C3=O)cc2C1=O` [Example 2-37, N,N-dimethyl-2-[6-[(3R)-3-(4-oxazol-5-ylphenoxy)-2-oxo-pyrrolidin-1-yl]-1-oxo-isoindolin-2-yl]acetamide], the EC50 turned out to be 0.862 µM.

For the compound `CN(C)C(=O)CN1Cc2ccc(N3CC[C@@H](Oc4ccc(-c5cnccn5)cc4)C3=O)cc2C1=O` [Example 2-38, N,N-dimethyl-2-[1-oxo-6-[(3R)-2-oxo-3-(4-pyrazin-2-ylphenoxy)pyrrolidin-1-yl]isoindolin-2-yl]acetamide], the EC50 worked out at 0.808 µM. On to `CCn1nnnc1-c1ccc(O[C@@H]2CCN(c3ccc4c(c3)C(=O)N(CC(=O)N(C)C)C4)C2=O)cc1` [Example 2-39, 2-[6-[(3R)-3-[4-(1-ethyltetrazol-5-yl)phenoxy]-2-oxo-pyrrolidin-1-yl]-1-oxo-isoindolin-2-yl]-N,N-dimethyl-acetamide], for which the EC50 is 27 µM. On to `CN(C)C(=O)CN1Cc2ccc(N3CC[C@@H](Oc4ccc(-c5csnn5)cc4)C3=O)cc2C1=O` [Example 2-40, N,N-dimethyl-2-[1-oxo-6-[(3R)-2-oxo-3-[4-(thiadiazol-4-yl)phenoxy]pyrrolidin-1-yl]isoindolin-2-yl]acetamide], for which the EC50 came out at 0.337 µM. To `CN(C)C(=O)CN1Cc2ccc(N3CC[C@@H](Oc4ccc(OC(F)(F)F)c(Cl)c4)C3=O)cc2C1=O` [Example 2-41, 2-[6-[(3R)-3-[3-chloro-4-(trifluoromethoxy)phenoxy]-2-oxo-pyrrolidin-1-yl]-1-oxo-isoindolin-2-yl]-N,N-dimethyl-acetamide] belongs 0.47 µM; to `CN(C)C(=O)CN1Cc2ccc(N3CC[C@@H](Oc4ccc(-c5nccs5)cc4)C3=O)cc2C1=O` [Example 2-42, N,N-dimethyl-2-[1-oxo-6-[(3R)-2-oxo-3-(4-thiazol-2-ylphenoxy)pyrrolidin-1-yl]isoindolin-2-yl]acetamide], 0.117 µM. The result for `Cc1noc(COc2ccc(O[C@@H]3CCN(c4ccc5c(c4)C(=O)N(CC(=O)N(C)C)C5)C3=O)cc2)n1` [Example 2-43, N,N-dimethyl-2-[6-[(3R)-3-[4-[(3-methyl-1,2,4-oxadiazol-5-yl)methoxy]phenoxy]-2-oxo-pyrrolidin-1-yl]-1-oxo-isoindolin-2-yl]acetamide] reads 1.5 µM.

`CN(C)C(=O)CN1Cc2ccc(N3CC[C@@H](Oc4ccc(-n5cnnn5)cc4)C3=O)cc2C1=O` [Example 2-44, N,N-dimethyl-2-[1-oxo-6-[(3R)-2-oxo-3-[4-(tetrazol-1-yl)phenoxy]pyrrolidin-1-yl]isoindolin-2-yl]acetamide]: the 50% effective concentration (EC50) was found to be 14.7 µM.

Regarding `CCOC(=O)CCc1cc(O[C@@H]2CCN(c3ccc4c(c3)C(=O)N(CC(=O)N(C)C)C4)C2=O)ccc1Cl` [Example 2-45, ethyl 3-[2-chloro-5-[(3R)-1-[2-[2-(dimethylamino)-2-oxo-ethyl]-3-oxo-isoindolin-5-yl]-2-oxo-pyrrolidin-3-yl]oxy-phenyl]propanoate], the EC50 worked out at 1.51 µM. Consider `CN(C)C(=O)CN1Cc2ccc(N3CC[C@@H](Oc4ccc(N5CCCC5)cc4)C3=O)cc2C1=O` [Example 2-46, N,N-dimethyl-2-[1-oxo-6-[(3R)-2-oxo-3-(4-pyrrolidin-1-ylphenoxy)pyrrolidin-1-yl]isoindolin-2-yl]acetamide], for which the EC50 was 6.37 µM.

As to `CN(C)C(=O)CN1Cc2ccc(N3CC[C@@H](Oc4cnc(OCC5CC5)c(Br)c4)C3=O)cc2C1=O` [Example 2-47, 2-[6-[(3R)-3-[[5-bromo-6-(cyclopropylmethoxy)-3-pyridyl]oxy]-2-oxo-pyrrolidin-1-yl]-1-oxo-isoindolin-2-yl]-N,N-dimethyl-acetamide], the EC50 stood at 0.09 µM. On to `CN(C)C(=O)CN1Cc2ccc(N3CC[C@@H](Oc4ccc(C(=O)C5CC5)cc4)C3=O)cc2C1=O` [Example 2-48, 2-[6-[(3R)-3-[4-(cyclopropanecarbonyl)phenoxy]-2-oxo-pyrrolidin-1-yl]-1-oxo-isoindolin-2-yl]-N,N-dimethyl-acetamide], for which the EC50 came out at 0.202 µM. To `CC1(C(=O)c2ccc(O[C@@H]3CCN(c4ccc5c(c4)C(=O)N(CC(N)=O)C5)C3=O)cn2)CC1` [Example 2-49, 2-[6-[(3R)-3-[[6-(1-methylcyclopropanecarbonyl)-3-pyridyl]oxy]-2-oxo-pyrrolidin-1-yl]-1-oxo-isoindolin-2-yl]acetamide] belongs 0.424 µM; to `NC(=O)CN1Cc2ccc(N3CC[C@@H](Oc4ccc(C(=O)c5ccc(F)cc5)cc4)C3=O)cc2C1=O` [Example 2-50, 2-[6-[(3R)-3-[4-(4-fluorobenzoyl)phenoxy]-2-oxo-pyrrolidin-1-yl]-1-oxo-isoindolin-2-yl]acetamide], 0.102 µM. To `NC(=O)CN1Cc2ccc(N3CC[C@@H](Oc4ccc(-c5nccs5)cc4)C3=O)cc2C1=O` [Example 2-51, 2-[1-oxo-6-[(3R)-2-oxo-3-(4-thiazol-2-ylphenoxy)pyrrolidin-1-yl]isoindolin-2-yl]acetamide] belongs 0.126 µM.

Take `NC(=O)CN1Cc2ccc(N3CC[C@@H](Oc4ccc(C(=O)C5CC5)nc4)C3=O)cc2C1=O` [Example 2-52, 2-[6-[(3R)-3-[[6-(cyclopropanecarbonyl)-3-pyridyl]oxy]-2-oxo-pyrrolidin-1-yl]-1-oxo-isoindolin-2-yl]acetamide]: the EC50 is 0.207 µM. The result for `NC(=O)CN1Cc2ccc(N3CC[C@@H](Oc4ccc(C(=O)C5CC5)cc4)C3=O)cc2C1=O` [Example 2-53, 2-[6-[(3R)-3-[4-(cyclopropanecarbonyl)phenoxy]-2-oxo-pyrrolidin-1-yl]-1-oxo-isoindolin-2-yl]acetamide] reads 0.13 µM; that for `CCCCC(=O)c1ccc(O[C@@H]2CCN(c3ccc4c(c3)C(=O)N(CC(N)=O)C4)C2=O)cc1` [Example 2-54, 2-[1-oxo-6-[(3R)-2-oxo-3-(4-pentanoylphenoxy)pyrrolidin-1-yl]isoindolin-2-yl]acetamide], 0.038 µM. The result for `CC1(C(=O)c2ccc(O[C@@H]3CCN(c4ccc5c(c4)C(=O)N(CC(N)=O)C5)C3=O)cc2)CC1` [Example 2-55, 2-[6-[(3R)-3-[4-(1-methylcyclopropanecarbonyl)phenoxy]-2-oxo-pyrrolidin-1-yl]-1-oxo-isoindolin-2-yl]acetamide] reads 0.207 µM; that for `NC(=O)CN1Cc2ccc(N3CC[C@@H](Oc4ccc(C(=O)CCC5CC5)nc4)C3=O)cc2C1=O` [Example 2-56, 2-[6-[(3R)-3-[[6-(3-cyclopropylpropanoyl)-3-pyridyl]oxy]-2-oxo-pyrrolidin-1-yl]-1-oxo-isoindolin-2-yl]acetamide], 0.034 µM; that for `CN(C)C(=O)CN1Cc2ccc(N3CC[C@@H](Oc4ccc(C(=O)CCC5CC5)nc4)C3=O)cc2C1=O` [Example 2-57, 2-[6-[(3R)-3-[[6-(3-cyclopropylpropanoyl)-3-pyridyl]oxy]-2-oxo-pyrrolidin-1-yl]-1-oxo-isoindolin-2-yl]-N,N-dimethyl-acetamide], 0.05 µM.

`CN(C)C(=O)CN1Cc2ccc(N3CC[C@@H](Oc4ccc(C(=O)C5CC5)nc4)C3=O)cc2C1=O` [Example 2-58, 2-[6-[(3R)-3-[[6-(cyclopropanecarbonyl)-3-pyridyl]oxy]-2-oxo-pyrrolidin-1-yl]-1-oxo-isoindolin-2-yl]-N,N-dimethyl-acetamide]: the EC50 came to 0.251 µM.
